Test results: patent publication US20230232833A1, “Synergistic Compositions for the Control of Mosquito-Borne Diseases” (Universite d'Angers, priority 2020, published 2023)

How the values were obtained:
[1] = tested on: Anopheles gambiae larvae of resistant strain KdrKis; experiment: Larval sensitivity test (WHO-certified cup test), KdrKis strain; format: in vivo; conditions: for LC10 - 24 hours / LC10 - 48 hours: KdrKis larvae, graphical projection from log-probit regression curves; for LC10 - 24 hours: 24 hours exposure; for LC10 - 48 hours: 48 hours exposure
Method: (§1) Methodology of the WHO-certified Test of the Sensitivity of Larvae to Insectivides and Repellents. The sensitivity to insecticides and repellents of the Anopheles gambia mosquito larvae of the sensitive Kis strain and of the resistant AcerKis and KdrKis strains, was determined using the larval sensitivity test (or WHO-certified cup test). The larvae, selected at the L3/L4 stages, were placed in cups containing 100 mL of osmosis water in the presence of the substance to be tested or only the solvent in the case of controls. Four cups of 25 larvae were exposed to one modality, for a total of 100 larvae. The mortality rate was observed 24 […] and 48 hours after exposure to the insecticide. The mortality rates presented herein were corrected for the mortality observed in the controls of each replicate according to the Abbott formula (Abbott, J. Econom. Entomol., 1925, 18: 265-267).

[2] = tested on: Anopheles gambiae larvae of resistant strain AcerKis; experiment: Larval sensitivity test (cup test), AcerKis strain; format: in vivo; conditions: for LC10 - 24 hours / LC10 - 48 hours: AcerKis larvae, graphical projection from log-probit regression curves; for LC10 - 24 hours: 24 hours exposure; for LC10 - 48 hours: 48 hours exposure
Method: Larval Testing Protocol. The larval sensitivity test or cup test, which was used in the present study, assesses the sensitivity of mosquito larvae to insecticides and repellents. The larvae were placed in cups containing 100 mL of osmosis water added with the substance to be tested or with only solvent in the case of the controls (see FIG. 3). Four containers (cups) of 25 larvae were exposed to one modality, for a total of 100 larvae. The mortality rate was observed 24 hours after exposure to the insecticide. The mosquitoes used were late L3/early L4 larvae (last larval stages) of Anopheles gambiae, sensitive Kis reference strain and a resistant strain AcerKis, grown in the MIVEGEC laboratory under standardized conditions.
as §1

SMILES | Mortality rate of larvae ([1]; KdrKis, IR3535 alone 1000 to 4000 mg/L, 24 and 48 hours) | Mortality rate of larvae ([2]; AcerKis, IR3535 alone 1000 to 4000 mg/L, 24 and 48 hours) | LC10 - 24 hours [1] [mg/L] | LC10 - 48 hours [1] [mg/L] | LC10 - 24 hours [2] [mg/L] | LC10 - 48 hours [2] [mg/L]
CCCCN(CCC(=O)OCC)C(C)=O [IR3535, ethyl N-acetyl-N-butyl-β-alaninate] | less than 5% | less than 5% |  |  |  | 
CN1COCN(Cc2cnc(Cl)s2)C1=N[N+](=O)[O-] [Thiamethoxam, 3-[(2-Chloro-1,3-thiazol-5-yl)methyl]-5-methyl-N-nitro-1,3,5-oxadiazinan-4-imine] |  |  | 0.04 | 0.02 | 0.04 | 0.01
N#C/N=C1\SCCN1Cc1ccc(Cl)nc1 [Thiacloprid, {(2Z)-3-[(6-Chloropyridin-3-yl)methyl]-1,3-thiazolidin-2-ylidene}cyanamide] |  |  | 0.02 | 0.01 | 0.02 | 0.01
